Assays:
Experiment in all cases: relative viability (nuclei count vs DMSO), 5 days (fraction); higher = more cells survive
[1] = compound: C=CCc1cccc(/C=N/NC(=O)CN2CCN(Cc3ccccc3)CC2)c1O [PAC-1]
How it was run: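 After an overnight hold at 37 °C, lung cancer cell lines in 1536-well plates were pinned with five library-drug doses (not always all listed), each √10 from the next, on vehicle-anchored plates. The cells stayed 5 days without fresh medium, then a one-step fix, permeabilisation and Hoechst stain preceded 4× imaging and MetaXpress nuclear counts. A plate passed only with control CV under 25% and at least one doubling. Viability is the median, over plates, of treated-well nuclei relative to vehicle-well nuclei.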

[2] = compound: C=CC(=O)N1CCC[C@@H](n2nc(-c3ccc(Oc4ccccc4)cc3)c3c(N)ncnc32)C1 [Ibrutinib] + Cc1nc(NC(=O)N2CCC[C@H]2C(N)=O)sc1-c1ccnc(C(C)(C)C(F)(F)F)c1 [Alpelisib] (partner 2 µM)
How it was run: (§1)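 One day after seeding in 1536-well plates, lung cancer cell lines were dosed by pin tool. Dosing was either single-drug or a fixed anchor-drug dose plus five library-drug doses (not always all listed) in √10 steps. After 5 days, nuclei were stained in one fix-and-stain step and counted on 4× images, and relative viability is the nuclei count of treated wells over that of vehicle wells, given as the median of duplicate plates.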

[3] = compound: C=CC(=O)Nc1cc(-n2c(=O)ccc3cnc4ccc(-c5ccc(NS(C)(=O)=O)cc5)cc4c32)ccc1C [BMX-IN-1] + CC(=O)Nc1cccc(-n2c(=O)n(C3CC3)c(=O)c3c(Nc4ccc(I)cc4F)n(C)c(=O)c(C)c32)c1 [Trametinib] (partner 0.02 µM)
How it was run: as §1

[4] = compound: C=CC(=O)Nc1cc(-n2c(=O)ccc3cnc4ccc(-c5ccc(NS(C)(=O)=O)cc5)cc4c32)ccc1C [BMX-IN-1] + CS(=O)(=O)CCNCc1ccc(-c2ccc3ncnc(Nc4ccc(OCc5cccc(F)c5)c(Cl)c4)c3c2)o1 [Lapatinib] (partner 2 µM)
How it was run: as §1

Cell Line | relative viability ([1]; 0.02 µM) | relative viability ([1]; 0.06325 µM) | relative viability ([1]; 0.2 µM) | relative viability ([1]; 2 µM) | relative viability ([2]; first compound 0.005 µM) | relative viability ([2]; first compound 0.01581 µM) | relative viability ([2]; first compound 0.1581 µM) | relative viability ([2]; first compound 0.5 µM) | relative viability ([3]; first compound 0.02 µM) | relative viability ([3]; first compound 0.2 µM) | relative viability ([3]; first compound 0.6325 µM) | relative viability ([3]; first compound 2 µM) | relative viability ([4]; first compound 0.02 µM) | relative viability ([4]; first compound 0.2 µM) | relative viability ([4]; first compound 0.6325 µM) | relative viability ([4]; first compound 2 µM) | relative viability ([2]; first compound 0.05 µM)
NCI-H1666 | 1.01 | 1.01 | 1 | 1.04 | 0.677 | 0.726 | 1.11 | 0.426 | 0.788 | 1.06 | 0.977 | 0.885 | 0.772 | 0.626 | 0.663 | 0.444 | 
NCI-H650 | 0.976 | 0.966 | 0.891 | 0.872 |  | 1 | 1.26 | 1.13 | 1.01 | 0.912 | 0.979 | 0.919 | 0.862 | 1.11 | 0.982 | 0.858 | 
EPLC-272H | 0.877 | 1.04 | 0.941 | 0.929 |  | 1.02 | 0.848 | 0.759 | 0.27 | 0.257 | 0.311 | 0.318 | 1.03 | 0.929 | 1.14 | 1.08 | 0.836
LXF-289 | 0.974 | 1.01 | 0.997 | 1.01 |  | 1.03 |  | 0.908 | 0.722 | 0.704 | 0.761 | 0.752 | 0.982 | 1.01 | 0.957 | 0.983 | 
LOU-NH91 | 0.891 | 0.959 | 0.917 | 0.972 | 0.652 | 0.597 | 0.67 | 0.48 |  | 0.814 | 0.849 | 0.784 |  | 0.792 | 0.819 | 0.819 | 0.592
NCI-H1944 | 0.964 | 0.947 | 0.902 | 1.02 | 0.659 | 0.685 | 0.755 | 0.521 | 0.395 | 0.416 | 0.419 | 0.392 | 0.986 | 0.866 | 0.919 | 0.921 | 0.784
NCI-H460 | 0.979 | 0.966 | 0.934 | 1.07 | 0.5 | 0.319 | 0.536 | 0.538 | 0.131 | 0.136 | 0.236 | 0.181 |  | 1.36 | 1.75 | 1.1 | 0.496
NCI-H358 | 0.921 | 0.848 | 0.905 | 0.789 | 0.817 | 0.603 | 0.887 | 0.36 | 0.119 | 0.124 | 0.127 | 0.123 | 0.48 | 0.431 | 0.4 | 0.412 | 0.504
NCI-H596 | 1 | 0.937 | 1.07 | 1.05 | 0.482 | 0.503 | 0.503 | 0.479 | 0.718 | 0.912 | 0.652 | 0.825 | 0.987 | 1.13 | 1.12 | 0.935 | 0.51
NCI-H322M | 0.833 | 0.897 | 1.05 | 0.884 | 0.752 | 0.807 | 0.838 | 0.486 | 0.501 | 0.504 | 0.532 | 0.443 | 0.626 | 0.591 | 0.563 | 0.578 | 0.779
H3255 | 1.07 | 1.01 | 0.942 | 0.909 | 0.555 | 0.699 | 1.05 | 0.214 | 0.725 | 0.624 | 0.599 | 0.672 | 0.207 | 0.206 | 0.207 | 0.222 | 0.474
COR-L23 | 1.09 | 1 | 0.9 | 1 | 0.947 | 0.702 | 0.775 | 0.865 | 0.71 | 0.695 | 0.623 | 0.662 | 1.65 | 1.47 | 1.17 | 0.941 | 0.73
NCI-H2126 | 0.938 | 0.948 | 1.02 | 1.06 |  | 0.7 | 0.763 | 0.606 | 0.55 | 0.55 | 0.592 | 0.603 | 0.899 | 0.768 | 0.827 | 0.784 | 0.769
NCI-H1993 | 0.911 | 0.986 | 0.891 | 0.963 | 0.644 | 0.715 |  | 0.742 | 0.531 | 0.588 | 0.464 | 0.56 | 0.68 | 0.754 |  | 0.815 | 0.613
NCI-H1915 | 0.955 | 0.981 | 0.934 | 1.07 |  | 1 | 1.07 | 1.05 | 0.326 | 0.302 | 0.519 | 0.317 | 1.16 | 1.05 | 1.13 | 0.968 | 1.06
NCI-H727 | 0.968 | 1.15 | 0.944 | 0.916 | 0.519 | 0.556 | 0.576 | 0.435 | 0.419 | 0.429 | 0.387 | 0.4 | 0.841 | 1.01 | 0.887 | 0.939 | 0.433
NCI-H1734 | 0.936 | 1.01 | 0.942 | 1.02 | 0.557 | 0.583 | 0.669 | 0.654 | 0.732 | 0.751 | 0.735 | 0.7 | 1.21 | 1.66 | 1.1 | 1.05 | 0.705
A-427 | 1.01 | 1.04 | 0.976 | 0.97 | 1.06 | 1.08 | 1.09 | 1.14 | 0.691 | 0.727 | 0.79 | 0.722 | 1.21 | 0.995 | 1.17 | 1.06 | 1.11
NCI-H2170 | 1.02 | 0.978 | 0.99 | 0.962 | 0.728 | 0.362 | 0.773 | 0.231 | 0.951 | 1.02 | 1.09 | 0.906 | 0.281 | 0.28 | 0.272 | 0.271 | 0.278
